In ChEMBL document CHEMBL5365509, “Structure-Activity Relationship and Molecular Docking of Quinazolinones Inhibiting Expression of COX-2, IL-1β, iNOS, and TNF-α through NF-κB Pathways” (ACS Med Chem Lett, 2023):
The source made the active and inactive calls. The rule behind the calls is not given here.

Tests used:
RAW264.7 [1] = experiment: Anti-inflammatory activity in mouse RAW264.7 assessed as LPS-induced iNOS mRNA expression at 62.5 uM incubated for 16 hrs by RT-PCR analysis relative to control; assay type: functional
RAW264.7 [2] = experiment: Anti-inflammatory activity in mouse RAW264.7 assessed as decrease in LPS-induced IL-1beta mRNA expression at 62.5 uM incubated for 16 hrs by RT-PCR analysis; assay type: functional, cell-based
RAW264.7 [3] = experiment: Anti-inflammatory activity in mouse RAW264.7 assessed as decrease in LPS-induced COX-2 mRNA expression at 62.5 uM incubated for 16 hrs by RT-PCR analysis; assay type: functional, cell-based
in vitro = conditions: mouse
Description: Cytotoxicity against mouse RAW264.7 cells assessed as cell viability at 6.25 uM by MTT assay relative to control

RAW264.7 [4] = experiment: Anti-inflammatory activity in mouse RAW264.7 assessed as decrease in LPS-induced iNOS mRNA expression at 62.5 uM incubated for 16 hrs by RT-PCR analysis relative to control; assay type: functional; set-up: scale not given: the % may be the effect or the level left
RAW264.7 [5] = experiment: Anti-inflammatory activity in mouse RAW264.7 assessed as decrease in LPS-induced COX-2 mRNA expression at 62.5 uM incubated for 16 hrs by RT-PCR analysis relative to control; assay type: functional; set-up: scale not given: the % may be the effect or the level left
RAW264.7 [6] = experiment: Anti-inflammatory activity in mouse RAW264.7 assessed as decrease in LPS-induced TNF-alpha mRNA expression at 62.5 uM incubated for 16 hrs by RT-PCR analysis relative to control; assay type: functional; set-up: scale not given: the % may be the effect or the level left
RAW264.7 [7] = experiment: Anti-inflammatory activity in mouse RAW264.7 assessed as decrease in LPS-induced IL-1beta mRNA expression at 62.5 uM incubated for 16 hrs by RT-PCR analysis relative to control; assay type: functional; set-up: scale not given: the % may be the effect or the level left
RAW264.7 [8] = experiment: Anti-inflammatory activity in mouse RAW264.7 assessed as decrease in LPS-induced IL-1beta mRNA expression incubated for 16 hrs by RT-PCR analysis; assay type: functional, cell-based; conditions: dose 0.1-62.5 µM
RAW264.7 [9] = experiment: Anti-inflammatory activity in mouse RAW264.7 assessed as decrease in LPS-induced COX-2 mRNA expression incubated for 16 hrs by RT-PCR analysis; assay type: functional, cell-based; conditions: dose 0.1-62.5 µM
RAW264.7 [10] = experiment: Anti-inflammatory activity in mouse RAW264.7 assessed as LPS-induced TNF-alpha mRNA expression at 62.5 uM incubated for 16 hrs by RT-PCR analysis relative to control; assay type: functional
RAW264.7 [11] = experiment: Anti-inflammatory activity in mouse RAW264.7 assessed as LPS-induced COX-2 mRNA expression at 62.5 uM incubated for 16 hrs by RT-PCR analysis relative to control; assay type: functional
RAW264.7 [12] = experiment: Anti-inflammatory activity in mouse RAW264.7 assessed as LPS-induced IL-1beta mRNA expression at 62.5 uM incubated for 16 hrs by RT-PCR analysis relative to control; assay type: functional
RAW264.7 [13] = experiment: Cytotoxicity against mouse RAW264.7 cells assessed as cell viability at 6.25 uM by MTT assay; assay type: toxicity, cell-based; conditions: raw264.7, 6.25 µM

O=c1[nH]cnc2ncccc12
Activity (RAW264.7 [1]): 62.82%
Activity (RAW264.7 [2]): inactive
Activity (RAW264.7 [3]): inactive
viability at 6.25 µM (in vitro; RAW264.7 cells): > 80%

Cn1cnc2ccccc2c1=O
Activity (RAW264.7 [4]): <22%
Activity (RAW264.7 [5]): 28.85%
viability at 6.25 µM (in vitro; RAW264.7 cells): > 80%

Oc1ncnc2cc(Cl)ccc12
Activity (RAW264.7 [6]): <50%
Activity (RAW264.7 [7]): 10.85%
viability at 6.25 µM (in vitro; RAW264.7 cells): > 80%

Oc1nc(C2CCCCC2)nc2ccccc12
Activity (RAW264.7 [8]): Dose-Dependent Effect
Activity (RAW264.7 [9]): Dose-Dependent Effect
Activity (RAW264.7 [10]): 44%
Activity (RAW264.7 [7]): 75.72%
Activity (RAW264.7 [11]): >80%
viability at 6.25 µM (in vitro; RAW264.7 cells): > 80%

O=c1[nH]cnc2ccc(F)cc12
Activity (RAW264.7 [6]): <50%
Activity (RAW264.7 [7]): 10.85%
viability at 6.25 µM (in vitro; RAW264.7 cells): > 80%

CCCCCCc1nc2ccccc2c(=O)[nH]1
Activity (RAW264.7 [12]): 3.1%
Activity (RAW264.7 [5]): 95%
viability at 6.25 µM (in vitro; RAW264.7 cells): > 80%

COc1ccc(-c2nc(O)c3ccccc3n2)cc1
Activity (RAW264.7 [12]): <35%
Activity (RAW264.7 [3]): inactive

CCC(C)c1nc2ccccc2c(=O)[nH]1 (configuration not stated)
Activity (RAW264.7 [10]): 44%
Activity (RAW264.7 [2]): Active
Activity (RAW264.7 [12]): 4.02%
Activity (RAW264.7 [11]): 0.5%
viability at 6.25 µM (in vitro; RAW264.7 cells): > 80%

Cc1nc2ccccc2c(=O)[nH]1
Activity (RAW264.7 [12]): 58.79%
Activity (RAW264.7 [11]): 60.96%
viability at 6.25 µM (in vitro; RAW264.7 cells): > 80%

CC(c1ccccc1)n1cnc2ccccc2c1=O (configuration not stated)
Activity (RAW264.7 [4]): <22%
Activity (RAW264.7 [3]): Active
viability at 6.25 µM (in vitro; RAW264.7 cells): > 80%

Cc1cccc(-c2nc(O)c3ccccc3n2)c1
Activity (RAW264.7 [12]): <35%
Activity (RAW264.7 [11]): 3.79%
viability at 6.25 µM (in vitro; RAW264.7 cells): > 80%

O=c1[nH]cnc2ccccc12 [QUINAZOLINONE]
viability at 6.25 µM (in vitro; raw264.7): > 80%

O=c1[nH]cnc2cc(F)ccc12
Activity (RAW264.7 [6]): <50%
Activity (RAW264.7 [7]): 10.85%
viability at 6.25 µM (in vitro; RAW264.7 cells): > 80%

CCCCCCCCc1nc2ccccc2c(=O)[nH]1
Activity (RAW264.7 [8]): Dose-Dependent Effect
Activity (RAW264.7 [9]): Dose-Dependent Effect
Activity (RAW264.7 [10]): 44%
Activity (RAW264.7 [2]): Active
Activity (RAW264.7 [12]): 6.92%
Activity (RAW264.7 [11]): 11.14%
viability at 6.25 µM (in vitro; RAW264.7 cells): > 80%

CC(C)c1nc2ccccc2c(=O)[nH]1
Activity (RAW264.7 [2]): Active
Activity (RAW264.7 [12]): 14.02%
Activity (RAW264.7 [11]): 20.47%
viability at 6.25 µM (in vitro; RAW264.7 cells): > 80%

O=c1[nH]c(-c2cccc(C(F)(F)F)c2)nc2ccccc12
Activity (RAW264.7 [1]): 13.98%
Activity (RAW264.7 [12]): <35%
Activity (RAW264.7 [3]): inactive
viability at 6.25 µM (in vitro; RAW264.7 cells): > 80%

O=c1c2ccccc2ncn1-c1ccccc1
Activity (RAW264.7 [4]): <22%
Activity (RAW264.7 [5]): 28.46%
viability at 6.25 µM (in vitro; RAW264.7 cells): > 80%

O=c1[nH]c(/C=C/c2ccccc2)nc2ccccc12
Activity (RAW264.7 [13]): Toxic

COc1ccc(-c2nc3ccccc3c(=O)[nH]2)cc1
viability at 6.25 µM (in vitro; RAW264.7 cells): > 80%
